Like-named read-outs stand apart in the source and are kept apart here.

Series [1] has as its system 22F5. In words: Hydrolysis of reactant ligands by receptor 22F5. Type of series: biochemical, mouse. The following applies: pH 8.0; receptor/ligand uM, time h: 17 1/10, 2; 18 2/10, 24; 20 2/10, 0.33; 5 1/5, 0.33; 22 5/10, 3.5; preliminary. On the procedure:
(§1) ^1 Preliminary initial hydrolyses shown as the percentage of admixed
(§2) reactant ligand consumed for catalyzed and spontaneous hydrolyses. "--" =
(§3) No hydrolysis observed. "NT" = Not tried. All reactions were carried out
(§4) at pH 8.0 in a 50 mM phosphate buffer unless otherwise noted. Hydrolytic
(§5) percentages were determined by HPLC using a Hitachi model 655A12 liquid
(§6) chromatograph with a C18 Vydac 201TP54 column, except as noted below.
(§7) Mixtures of acetonitrile a nd water containing 0.1 percent trichloroaceti
(§8) acid [28:72-50:50 (v/v)] were used as elutant. Hydrolyses of Compounds 5
(§9) and 20 were assayed using fluorescence data.
(§10) ^2 Concentrations of receptor molecules (Rec.) and reactant ligands
(§11) (Lig.) in micromolar units, presuming a molecular weight of 150,000
(§12) daltons for each receptor molecule.
(§13) ^3 Reactant ligand (Lig.) used as substrate.
(§14) ^4 Time in hours that the reaction was permitted to take place.
(§15) ^5 Spontaneous hydrolytic percentages for the time period indicated.
(§16) ^6 Reaction carried out at pH 7.2 in a 50 mM phosphate buffer.

The nature of series [2]: Spontaneous (uncatalyzed, background) hydrolysis. The series is classed as physicochemical. The following applies: pH 8.0, 50 mM phosphate; time (h): 17 2; 18 24; 20 0.33; 5 0.33; 22 3.5. How it is done: The practical range of pH for the assay is limited by the rapid spontaneous rate of hydrolysis of an ester Compound 5 above pH 8.0. Initially, the ester was used at a concentration that was about four-fold greater than that of the protein, and the mixture was incubated at pH 7.2 for 10 minutes. Any change in fluorescence above background was noted.
The lack of spectroscopic distinction between such esters and their hydrolysis products recommended a chromatographic analysis of the process. Referring to FIG. 3, a mixture of Compound 7 (5 uM) and the monoclonal antibody from hybridoma P3 6D4 (0.1 uM) in phosphate buffer (50 mM, pH 8.0) was analyzed over time by high performance liquid chromatography (HPLC). The accelerated hydrolysis of the ester was apparent from the decrease of its peak and the concurrent increase in two new peaks that correspond with the expected products. Under these conditions, the ester is completely consumed in 60-80 minutes during which time the background rate accounts for about 12 to 16 percent hydrolysis. The chromatographic profile is the same as that produced by treatment with hog liver esterase.
^c The rate constants were determined spectrophotometrically (at 245
nm) by measuring initial rates at five concentrations of ester.
as §1, §2, §3, §4, §5, §6, §7, §8, §9, §15
Reaction kinetics were studied using three reactant ligands as substrates for monoclonal receptors 37G2 and 22F5. Data from initial rates were consistent with Michaelis-Menten reaction mechanism for a usual enzyme-substrate system. Initial rates were followed using at 271 nm using a U.V.-visible spectorphotometer for Compound 17, and a fluorescence spectrometer for Compounds 5 and 20, using an excitation wavelength of 355 nm and an emission wavelength of 455 nm for both compounds.

Series [3] deals with 21G2. The experiment in a line: Hydrolysis of reactant ligands by receptor 21G2. Type of series: biochemical, mouse. The following applies: pH 8.0; receptor/ligand uM, time h: 17 1/10, 2; 18 2/10, 24; 20 2/10, 0.33; 5 1/5, 0.33; 22 5/10, 3.5; preliminary. How it is done: as §1, §2, §3, §4, §5, §6, §7, §8, §9, §10, §11, §12, §13, §14, §15, §16
Series [4] concerns 13E10. In words: Hydrolysis of reactant ligands by receptor 13E10. The series is classed as biochemical, mouse. The following applies: pH 8.0; receptor/ligand uM, time h: 17 1/10, 2; 18 2/10, 24; 20 2/10, 0.33; 5 1/5, 0.33; 22 5/10, 3.5; preliminary. How it is done:
as §1, §2, §3, §4, §5, §6, §7, §8, §9, §10, §11, §12, §13, §14, §15, §16

Series [5] relates to 17G8. The experiment in a line: Hydrolysis of reactant ligands by receptor 17G8. Type of series: biochemical, mouse. As to conditions: pH 8.0; receptor/ligand uM, time h: 18 2/10, 24; 20 2/10, 0.33; 5 1/5, 0.33; 22 5/10, 3.5; preliminary. On the procedure:
as §1, §2, §3, §4, §5, §6, §7, §8, §9, §10, §11, §12, §13, §14, §15, §16

Series [6] concerns 37G2. The experiment in a line: Hydrolysis of reactant ligands by receptor 37G2. Type of series: biochemical, mouse. As to conditions: pH 8.0; receptor/ligand uM, time h: 17 1/10, 2; 18 2/10, 24; 20 2/10, 0.33; 5 1/5, 0.33; 22 5/10, 3.5; preliminary. How it is done:
as §1, §2, §3, §4, §5, §6, §7, §8, §9, §10, §11, §12, §13, §14, §15, §16

Series [7] relates to 1209. In words: Hydrolysis of reactant ligands by receptor 12C9 (column head prints 1209). As to conditions: pH 8.0; receptor/ligand uM, time h: 17 1/10, 2; 18 2/10, 24; 20 2/10, 0.33; 5 1/5, 0.33; 22 5/10, 3.5; preliminary. The series is classed as biochemical, mouse. On the procedure: as §1, §2, §3, §4, §5, §6, §7, §8, §9, §10, §11, §12, §13, §14, §15, §16
In series [8] the test system is 44A2. In words: Hydrolysis of reactant ligands by receptor 44A2. Type of series: biochemical, mouse. As to conditions: pH 8.0; receptor/ligand uM, time h: 17 1/10, 2; 18 2/10, 24; 20 2/10, 0.33; 5 1/5, 0.33; 22 5/10, 3.5; preliminary. On the procedure:
as §1, §2, §3, §4, §5, §6, §7, §8, §9, §10, §11, §12, §13, §14, §15, §16

Series [9] relates to 7E5. The experiment in a line: Hydrolysis of reactant ligands by receptor 7E5. The series is classed as biochemical, mouse. As to conditions: pH 8.0; receptor/ligand uM, time h: 17 1/10, 2; 18 2/10, 24; 20 2/10, 0.33; 5 1/5, 0.33; 22 5/10, 3.5; preliminary. On the procedure: as §1, §2, §3, §4, §5, §6, §7, §8, §9, §10, §11, §12, §13, §14, §15, §16
Series [10] concerns monoclonal receptor P3 6D4. In words: Stoichiometric transacylation reaction of monoclonal receptor P3 6D4 with coumarin ester Compound 5 (fluorescence) and its inhibition/inactivation. Type of series: biochemical, mouse. How it is done: A Perkin-Elmer LS-5 fluorescence spectrometer was operated at a fixed wavelength, using 355 nanometers (nm) for excitation and measuring the emission at 455 nm. A stock solution of the coumarin ester 5 was prepared in dioxane and was diluted to the desired concentrations in Tris-HCl (50 mM, pH 7) or sodium phosphate (50 mM, pH 4-9).
Reactions were run at 23 degrees C and were initiated by the addition of an aliquot of antibody solution (1 mg/ml) to substrate solutions to provide a final protein concentration of 100 nM. Final fluorescence values were determined by hydrolysis of the substrate with pig liver esterase. The observed reaction rate was corrected for spontaneous hydrolysis. Reaction kinetics were studied by measuring initial rates under pseudo-first order conditions. Active protein concentration was extrapolated from fluorescence values at the end of the reaction. The kinetic parameters were obtained by fitting the data to a hyperbolic curve and from double reciprocal plots. Inhibition constants were determined from the Lineweaver-Burk plot data with at least five inhibitor concentrations. All the data were studied by a least squares analysis.
Antibody preparations were inactivated without introducing fluorescent products by the addition of the activated ester (Compound 8) in dioxane to a solution of the IgG (5 mg/ml) in Tris-HCl (50 mM, pH 6.5) at a ratio of 5 moles of the ester (Compound 8) per mole IgG.
Protein modification was performed in an analogous manner, by the addition of a dioxane solution of the reagent at a known concentration to the antibody. The solution was incubated for 30 minutes before filtration through Sephadex G-25. The activity remaining was compared to control samples. Aliquots of IgG (5 mg/ml) inactivated with the ester (Compound 8) were diluted with four volumes of phosphate buffer (50 mM, pH 4-9, at intervals of 1 pH unit). Any pH change was recorded, and the sample was stored at 4 degrees C for 24 hours.
Initially, the ester was used at a concentration that was about four-fold greater than that of the protein, and the mixture was incubated at pH 7.2 for 10 minutes. Any change in fluorescence above background was noted.
The termination of the reaction is noted by the return of the rate of fluorescence increase to the background level.

Series [11] concerns monoclonal antibody P3 6D4. The experiment in a line: Kinetics and inhibition of catalytic ester hydrolysis by monoclonal antibody P3 6D4, spectrophotometric at 245 nm. Type of series: biochemical, mouse. The following applies: for Ki: substrate Compound 7, read-out: inhibition constant ki, catalytic reaction with Compound 7. On the procedure: FIG. 4 illustrates a Lineweaver-Burk plot for the hydrolysis of Compound 7 by anti-Compound 4 monoclonal antibody from hybridoma P3 6D4. Velocities were determined spectrophotometrically by measuring initial rates during the first linear portion of the reaction as described with reference to Table 2. The substrate concentrations were corrected for amounts consumed during initial equilibration. ( ) No inhibitor present. ( ) Inhibited by 50 nM phosphonate (Compound 3). ( ) Inhibited by 100 nM phosphonate (Compound 3).
In particular, an exemplary monoclonal receptor was produced by the standard hybridoma technology of Kohler et al., Nature, 256, 495 (1975). Specifically, female 129G1X^+ mice were immunized by intraperitoneal injection with an inoculum of 100 micrograms of conjugate (e.g., Compound 4i bound to KLH) in 300 microliters of a 1:1 mixture of phosphate buffered saline (PBS) pH 7.4 and complete Freund's adjuvant. Two weeks later, the mice were again injected in a like manner with 50 micrograms of the foregoing conjugate in 300 microliters of a 1:1 mixture of PBS (pH 7.4) and 10 mg/ml alum. After an additional eight weeks, the mice were immunized intravenously with 50 micrograms of the conjugate in 200 microliters of PBS (pH 7.4). The spleens were removed from the mice 4 days later, and the spleen cells were fused to myeloma cells.
Reaction kinetics were measured spectrophotometrically by following the absorption change at 245 nanometers. […] Kinetic parameters obtained with these substrates are shown in Table 2 along with the inhibition constants obtained with phosphonate (Compound 3). Under these conditions, the acceleration above the background rate is about 960-fold for Compound 7 and about 200-fold for Compound 8 (corrected for the background hydrolysis rate).
*The kinetic parameters shown in Table 2 are for the hydrolysis of esters
(Compounds 7 and 8) by monoclonal antibody P3 6D4. A PerkinElmer lambda 4
spectrophotometer, equipped with thermostatted cell holder, was used to
measure absorption changes at 245 nm. Cells containing the substrate at
concentrations of 0.5 to 50 micromolar in phosphate buffer (50 mM, pH 8.0
were preequilibrated at 25 degrees C. The concentration of active IgG in
stock solution was found by reacting with the coumarin ester (Compound 5)
and measuring the yield of hydroxycoumarin by fluorescence. The kinetic
run was initiated by addition of an aliquot of the antibody stock solutio
(in 50 mM phosphate buffer, pH 8.0) calculated to give 100 nM IgG. The
mixture was allowed to equilibrate for 2 to 3 minutes and the rate was
then measured during the subsequent 10 minutes. The absorption change for
complete hydrolysis was determined by treatment with esterase. Kinetic
parameters were obtained from L ineweaverBurk plots (see FIG. 4).
Inhibition constants were determined from a plot of the slopes with at
least four inhibitor concentrations of Compound 3. The data were analyzed

The mark [12] stands for this setting: substrate Compound 5, estimated, read-out: inhibition constant, stoichiometric reaction with Compound 5.

Consider `CC(=O)Nc1ccc(CC(=O)Oc2ccccc2)cc1` [Compound 22], for which, in [1], the “hydrolysis by 22F5” value is 26 percentage of reactant ligand. Besides, the “Spon. (spontaneous hydrolysis)” value in series [2] is recorded as 5 percentage of reactant ligand. In addition, the “hydrolysis by 21G2” value in series [3] was 19 percentage of reactant ligand. Moreover, the “hydrolysis by 13E10” value in series [4] is given as 14 percentage of reactant ligand. Also, in series [5], the “hydrolysis by 17G8” value is listed as 22 percentage of reactant ligand. Moreover, the “hydrolysis by 37G2” value in [6] is 45 percentage of reactant ligand. Also, the “hydrolysis by 1209” value in series [7] is 12 percentage of reactant ligand. Further, in series [8], the “hydrolysis by 44A2” value is 24 percentage of reactant ligand. The “hydrolysis by 7E5” value in series [9] is 9 percentage of reactant ligand.

Turning to `O=C(O)c1ccccn1` [picolinic acid, reference compound], the “effect of additive on antibody-enhanced esterolysis of Compound 5” value in series [10] (up to 100 micromolar added zinc and picolinic acid, EDTA concentration not given) is “No effect”. For the same compound, the “effect of additive on rate of reaction of Compound 7 with antibody” value in [11] (picolinic acid alone or picolinic acid and zinc chloride) is recorded as “no effect”.

`CC(=O)Nc1ccc(OP(=O)(O)Cc2ccc(NC(=O)C(F)(F)F)cc2)cc1` [Compound 1i]: the Ki in series [10] (setting [12]) was 0.1 µM; in [11] it was 0.8 µM.

In the case of `CC(=O)Nc1ccc(OP(=O)(O)Cc2ccc(NC(=O)C(F)(F)F)cc2)c(CNC(=O)c2cccc(C(=O)O)n2)c1` [Compound 3i], the Ki in series [10] (setting [12]) was 0.035 µM; in series [10] (summary, kinetic parameters at low pH values, read-out: Ki (inhibition of antibody esterolysis)), 0.035 µM; in series [11], 0.16 µM.

(Values after patent US5126258A (priority 1988, dated 1992).)
